This passage reports pest or weed control results from US20230329236A1, “HERBICIDAL PYRIMIDINE DERIVATIVES” (MoA Technology Limited, priority 2020, published 2023).

Usually pest or weed control stands for the degree to which the test organism was suppressed or injured, in per cent. A lower pest or weed control goes with a weak effect.

For one assay, the system named is Lolium multiflorum (LOLMU). The experiment in a line: Post-emergence glasshouse test, visual injury, LOLMU. It is filed as in vivo. The note with it: 336 h, Table 3, post-emergence, 62 g/ha, 14±1 days post application. The procedure: (§1) Seeds of a variety of test species are grown in a sandy loam soil mixture, Lolium multiflorum (LOLMU), Amaranthus retroflexus (AMARE), Echinochloa crus-gaffi (ECHCG), Veronica persica (VERPE), Glycine max (GLXMA), Oryza sativa (ORYSA), Zea mays (ZEAMX), spring wheat (TRZAS), Ipomoea hederacea (IPOHE), Ipomoea purpurea (PHBPU), Stellaria media (STEME), Solanum nigrum (SOLNI), Digitaria sanguinalis (DIGSA), Setaria italica (SETIT), Alopecurus myosuroides (ALOMY) and Avena fatua (AVEFA).
(§2) After sowing, at growth stage BBCH 12-14 (post-emergence), the plants are sprayed with an aqueous spray solution derived from the formulation of the technical active ingredient in acetone/water (50:50) solution containing 0.5% Tween 20 (polyoxyethlyene sorbitan monolaureate, CAS RN 9005-64-5). The test compounds are applied at the required concentration of active ingredient in g/ha. The test plants are then grown in a glasshouse under controlled environmental conditions and watered regularly as required. After 14±1 days post application (for post-emergence test), the test is evaluated by assessing the percentage damage caused to the plants in comparison with the untreated plots. The biological activities for post-emergence testing are shown below (Table 3 and Table 4) as a % visual injury.
On to `Cc1cc(-c2cnc(NCc3ccncc3F)nc2C(C)C)on1` [Compound 95], for which the pest or weed control at 62 g/ha was determined as 30%.
The same measure, in the same setting: in the case of `Cc1cc(-c2cnc(NCc3cccc(C#N)c3)nc2C(C)C)on1` [Compound 97] it was 20%; in that of `Cc1ncc(-c2cnc(NC3CCCC3)nc2C(C)C)s1` [Compound 123], 0%; in that of `CC(C)c1nc(NC2CCCC2)ncc1-c1cncs1` [Compound 124], 0%.
On the same count and under the same terms, in the case of `Cc1cccc(CNc2ncc(-c3cc(C)no3)c(C(C)C)n2)c1` [Compound 99] it was 30%; in that of `Cc1ccc(CNc2ncc(-c3cc(C)no3)c(C(C)C)n2)cc1` [Compound 100], 0%.

The assay is the same for the next values; noted with them: 336 h, Table 3, post-emergence, 125 g/ha, 14±1 days post application.
In turn, `Cc1cc(-c2cnc(NC3CCC3)nc2C(F)(F)F)on1` [Compound 110] registered a pest or weed control at 125 g/ha of 40%.
Same read-out and setting: the same measure for `Cc1cc(-c2cnc(N)nc2C(F)(F)F)on1` [Compound 122]: 0%; for `CCc1nc(NCc2ccc(F)cc2)ncc1-c1cc(C)no1` [Compound 106]: 0%; for `Cc1cc(-c2cnc(NCc3ccc(C#N)cc3)nc2C(C)C)on1` [Compound 118]: 0%.
Same read-out and setting: in the case of `Cc1cc(-c2cnc(NCc3ccc(F)cc3)nc2C)on1` [Compound 128] it was 30%; in that of `Cc1cc(-c2cnc(NC3CCCC3)nc2C)on1` [Compound 92], 60%; in that of `Cc1cc(-c2cnc(NCc3ccc(F)cc3)nc2C(F)F)on1` [Compound 120], 0%.
On the same count and under the same terms, the same measure for `Cc1cc(-c2cnc(NCC3CCC3)nc2C(C)C)on1` [Compound 87]: 30%; for `Cc1cc(-c2cnc(N(C)C3CCCC3)nc2C(C)C)on1` [Compound 9]: 60%.

The next assay concerns Echinochloa crus-gaffi (ECHCG). The assay is described as follows: Post-emergence glasshouse test, visual injury, ECHCG. It is filed as in vivo, Echinochloa crus-galli. The note with it: 336 h, Table 3, post-emergence, 62 g/ha, 14±1 days post application. Here is the method:
as §1, §2
Consider `Cc1cc(-c2cnc(NCc3ccncc3F)nc2C(C)C)on1` [Compound 95], for which the pest or weed control at 62 g/ha was 60%.
Consider `Cc1cc(-c2cnc(NCc3cccc(C#N)c3)nc2C(C)C)on1` [Compound 97], for which the pest or weed control at 62 g/ha came to 70%.
Same read-out and setting: the same measure for `Cc1ncc(-c2cnc(NC3CCCC3)nc2C(C)C)s1` [Compound 123]: 0%; for `CC(C)c1nc(NC2CCCC2)ncc1-c1cncs1` [Compound 124]: 0%; for `Cc1cccc(CNc2ncc(-c3cc(C)no3)c(C(C)C)n2)c1` [Compound 99]: 70%.
`Cc1ccc(CNc2ncc(-c3cc(C)no3)c(C(C)C)n2)cc1` [Compound 100] showed a pest or weed control at 62 g/ha of 80%.

Still in this assay, the particulars now being: 336 h, Table 3, post-emergence, 125 g/ha, 14±1 days post application.
As for `Cc1cc(-c2cnc(NC3CCC3)nc2C(F)(F)F)on1` [Compound 110], the pest or weed control at 125 g/ha worked out at 0%.
On the same count and under the same terms, in the case of `Cc1cc(-c2cnc(N)nc2C(F)(F)F)on1` [Compound 122] it was 0%; in that of `CCc1nc(NCc2ccc(F)cc2)ncc1-c1cc(C)no1` [Compound 106], 30%; in that of `Cc1cc(-c2cnc(NCc3ccc(C#N)cc3)nc2C(C)C)on1` [Compound 118], 20%.
Same read-out and setting: the same measure for `Cc1cc(-c2cnc(NCc3ccc(F)cc3)nc2C)on1` [Compound 128]: 30%; for `Cc1cc(-c2cnc(NC3CCCC3)nc2C)on1` [Compound 92]: 50%; for `Cc1cc(-c2cnc(NCc3ccc(F)cc3)nc2C(F)F)on1` [Compound 120]: 20%.
On the same count and under the same terms, the same measure for `Cc1cc(-c2cnc(NCC3CCC3)nc2C(C)C)on1` [Compound 87]: 80%; for `Cc1cc(-c2cnc(N(C)C3CCCC3)nc2C(C)C)on1` [Compound 9]: 60%.

For a further assay, the system named is Veronica persica (VERPE). The assay is described as follows: Post-emergence glasshouse test, visual injury, VERPE. Type of assay: in vivo. The conditions noted are these: 336 h, Table 3, post-emergence, 62 g/ha, 14±1 days post application. The procedure:
as §1, §2
In the case of `Cc1cc(-c2cnc(NCc3ccncc3F)nc2C(C)C)on1` [Compound 95], the pest or weed control at 62 g/ha worked out at 60%.
The same measure, in the same setting: the same measure for `Cc1cc(-c2cnc(NCc3cccc(C#N)c3)nc2C(C)C)on1` [Compound 97]: 70%; for `Cc1ncc(-c2cnc(NC3CCCC3)nc2C(C)C)s1` [Compound 123]: 50%.
Still for that read-out and setting: in the case of `CC(C)c1nc(NC2CCCC2)ncc1-c1cncs1` [Compound 124] it was 0%.
Same read-out and setting: the same measure for `Cc1cccc(CNc2ncc(-c3cc(C)no3)c(C(C)C)n2)c1` [Compound 99]: 80%; for `Cc1ccc(CNc2ncc(-c3cc(C)no3)c(C(C)C)n2)cc1` [Compound 100]: 95%.

Still in this assay, the particulars now being: 336 h, Table 3, post-emergence, 125 g/ha, 14±1 days post application.
`Cc1cc(-c2cnc(NC3CCC3)nc2C(F)(F)F)on1` [Compound 110] displayed a pest or weed control at 125 g/ha of 0%.
The same measure, in the same setting: the same measure for `Cc1cc(-c2cnc(N)nc2C(F)(F)F)on1` [Compound 122]: 0%; for `CCc1nc(NCc2ccc(F)cc2)ncc1-c1cc(C)no1` [Compound 106]: 95%.
Still for that read-out and setting: the same measure for `Cc1cc(-c2cnc(NCc3ccc(C#N)cc3)nc2C(C)C)on1` [Compound 118]: 95%; for `Cc1cc(-c2cnc(NCc3ccc(F)cc3)nc2C)on1` [Compound 128]: 95%; for `Cc1cc(-c2cnc(NC3CCCC3)nc2C)on1` [Compound 92]: 70%.
Still for that read-out and setting: in the case of `Cc1cc(-c2cnc(NCc3ccc(F)cc3)nc2C(F)F)on1` [Compound 120] it was 40%; in that of `Cc1cc(-c2cnc(NCC3CCC3)nc2C(C)C)on1` [Compound 87], 70%; in that of `Cc1cc(-c2cnc(N(C)C3CCCC3)nc2C(C)C)on1` [Compound 9], 80%.

In a further assay the test system is Amaranthus retroflexus (AMARE). The experiment in a line: Post-emergence glasshouse test, visual injury, AMARE. Type of assay: in vivo. The note with it: 336 h, Table 3, post-emergence, 62 g/ha, 14±1 days post application. The procedure: as §1, §2
As for `Cc1cc(-c2cnc(NCc3ccncc3F)nc2C(C)C)on1` [Compound 95], the pest or weed control at 62 g/ha turned out to be 30%.
Same read-out and setting: the same measure for `Cc1cc(-c2cnc(NCc3cccc(C#N)c3)nc2C(C)C)on1` [Compound 97]: 50%; for `Cc1ncc(-c2cnc(NC3CCCC3)nc2C(C)C)s1` [Compound 123]: 0%.
Compound `CC(C)c1nc(NC2CCCC2)ncc1-c1cncs1` [Compound 124] displayed a pest or weed control at 62 g/ha of 10%.
On the same count and under the same terms, in the case of `Cc1cccc(CNc2ncc(-c3cc(C)no3)c(C(C)C)n2)c1` [Compound 99] it was 60%; in that of `Cc1ccc(CNc2ncc(-c3cc(C)no3)c(C(C)C)n2)cc1` [Compound 100], 80%.

The assay is the same for the next values; noted with them: 336 h, Table 3, post-emergence, 125 g/ha, 14±1 days post application.
As to `Cc1cc(-c2cnc(NC3CCC3)nc2C(F)(F)F)on1` [Compound 110], the pest or weed control at 125 g/ha was found to be 0%.
Turning to `Cc1cc(-c2cnc(N)nc2C(F)(F)F)on1` [Compound 122], the pest or weed control at 125 g/ha was found to be 20%.
Same read-out and setting: in the case of `CCc1nc(NCc2ccc(F)cc2)ncc1-c1cc(C)no1` [Compound 106] it was 90%; in that of `Cc1cc(-c2cnc(NCc3ccc(C#N)cc3)nc2C(C)C)on1` [Compound 118], 80%.
Still for that read-out and setting: the same measure for `Cc1cc(-c2cnc(NCc3ccc(F)cc3)nc2C)on1` [Compound 128]: 95%; for `Cc1cc(-c2cnc(NC3CCCC3)nc2C)on1` [Compound 92]: 90%.
Same read-out and setting: in the case of `Cc1cc(-c2cnc(NCc3ccc(F)cc3)nc2C(F)F)on1` [Compound 120] it was 30%; in that of `Cc1cc(-c2cnc(NCC3CCC3)nc2C(C)C)on1` [Compound 87], 50%.
`Cc1cc(-c2cnc(N(C)C3CCCC3)nc2C(C)C)on1` [Compound 9] had a pest or weed control at 125 g/ha of 95%.
